Patent US11834420B2, “Preparation method of pyrimidinylthio-benzoate oxime ester compound and application thereof as herbicide” (CHANGZHOU UNIVERSITY, priority 2019, dated 2023)
Each block holds one compound with its values, some of them ahead of it.

Columns and labels:
Portulaca oleracea = test: Pot experiment, indoor herbicidal activity (stem and leaf spray); assay type: in vivo; details: fresh weight inhibition rate, 45 g a.i/hm^2, stem and leaf spray, 21st day after applying
Description: (§1) 20 mg of the pyrimidinylthio-benzoate compound active pharmaceutical ingredients (APIs) is weighed with a 1/10,000 analytical balance, dissolved with acetone (or DMF or DMSO), and diluted with a 0.1% Tween-80 aqueous solution to a concentration of 45 g a.i/hm^2.
(§2) The test soil is quantitatively filled to 4/5 of the pot, and subirrigation method is adopted at a bottom of the pot to moisten the soil. The test weed seeds are sown on the soil surface and cultivated in a greenhouse. When the gramineous weeds grow to 3-4 leaf stage and broadleaf weeds grow to 4-6 leaf stage, a stem and leaf spray method is used for treatment. On the 21st day after applying the herbicide, the above-ground part is taken to weigh the fresh weight, and the fresh weight inhibition rate is calculated according to the formula. Fresh weight inhibition rate (%)=(control fresh weight−treated fresh weight)/control fresh weight×100%
(§3) Pyrithiobac-sodium is used as a positive control. The herbicidal activity of the target compound is screened. The dosage refers to the applied dosage of the pyrithiobac-sodium in the cotton field, i.e., 45 g a.i/hm^2, and the stem and leaf spray method is used for treatment.

Echinochloa crusgalli = test: as above; assay type: in vivo; details: fresh weight inhibition rate, 45 g a.i/hm^2, stem and leaf spray, 21st day after applying
Description: as §1, §2, §3

Eleusine indica = test: as above; assay type: in vivo; details: fresh weight inhibition rate, 45 g a.i/hm^2, stem and leaf spray, 21st day after applying
Description: as §1, §2, §3

Amaranthus retroflexus = test: as above; assay type: in vivo; details: fresh weight inhibition rate, 45 g a.i/hm^2, stem and leaf spray, 21st day after applying
Description: as §1, §2, §3

Setaria viridis = test: as above; assay type: in vivo; details: fresh weight inhibition rate, 45 g a.i/hm^2, stem and leaf spray, 21st day after applying
Description: as §1, §2, §3

Chenopodium album = test: as above; assay type: in vivo; details: fresh weight inhibition rate, 45 g a.i/hm^2, stem and leaf spray, 21st day after applying
Description: as §1, §2, §3

Structure (SMILES): COc1cc(OC)nc(Sc2cccc(Cl)c2C(=O)O/N=C(\C)c2ccccc2C)n1 [A, (E)-1-(o-tolyl)ethan-1-one O-(2-chloro-6-((4,6-dimethoxypyrimidin-2-yl)thio)benzoyl) oxime]
Inhibition rate (%) Portulaca oleracea (Portulaca oleracea): 35.4% | Inhibition rate (%) Echinochloa crusgalli (Echinochloa crusgalli): 35.6% | Inhibition rate (%) Eleusine indica (Eleusine indica): 67.6% | Inhibition rate (%) Amaranthus retroflexus (Amaranthus retroflexus): 92.0% | Inhibition rate (%) Setaria viridis (Setaria viridis): 31.3% | Inhibition rate (%) Chenopodium album (Chenopodium album): 100% | melting point: 108 to 111 °C

Structure (SMILES): COc1cc(OC)nc(Sc2cccc(Cl)c2C(=O)O/N=C(\C)c2cccc(C)c2)n1 [B, (E)-1-(m-tolyl)ethan-1-one O-(2-chloro-6-((4,6-dimethoxypyrimidin-2-yl)thio)benzoyl) oxime]
Inhibition rate (%) Portulaca oleracea (Portulaca oleracea): 60.7% | Inhibition rate (%) Echinochloa crusgalli (Echinochloa crusgalli): 30.3% | Inhibition rate (%) Eleusine indica (Eleusine indica): 53.0% | Inhibition rate (%) Amaranthus retroflexus (Amaranthus retroflexus): 93.5% | Inhibition rate (%) Setaria viridis (Setaria viridis): 53.0% | Inhibition rate (%) Chenopodium album (Chenopodium album): 87.0% | melting point: 84 to 88 °C

Structure (SMILES): COc1cc(OC)nc(Sc2cccc(Cl)c2C(=O)O/N=C(\C)c2ccc(C)cc2)n1 [C, (E)-1-(p-tolyl)ethan-1-one O-(2-chloro-6-((4,6-dimethoxypyrimidin-2-yl)thio)benzoyl) oxime]
Inhibition rate (%) Portulaca oleracea (Portulaca oleracea): 40.9% | Inhibition rate (%) Echinochloa crusgalli (Echinochloa crusgalli): 37.5% | Inhibition rate (%) Eleusine indica (Eleusine indica): 52.5% | Inhibition rate (%) Amaranthus retroflexus (Amaranthus retroflexus): 90.4% | Inhibition rate (%) Setaria viridis (Setaria viridis): 39.3% | Inhibition rate (%) Chenopodium album (Chenopodium album): 95.8% | melting point: 115 to 119 °C

Structure (SMILES): COc1cc(OC)nc(Sc2cccc(Cl)c2C(=O)O/N=C(\C)c2ccc(C(F)(F)F)cc2)n1 [F, (E)-1-(4-(trifluoromethyl)phenyl)ethan-1-one O-(2-chloro-6-((4,6-dimethoxypyrimidin-2-yl)thio)benzoyl)oxime]
Inhibition rate (%) Portulaca oleracea (Portulaca oleracea): 84.4% | Inhibition rate (%) Echinochloa crusgalli (Echinochloa crusgalli): 100% | Inhibition rate (%) Eleusine indica (Eleusine indica): 80.7% | Inhibition rate (%) Amaranthus retroflexus (Amaranthus retroflexus): 97.5% | Inhibition rate (%) Setaria viridis (Setaria viridis): 56.0% | Inhibition rate (%) Chenopodium album (Chenopodium album): 85.1% | melting point: 86 to 90 °C

Structure (SMILES): COc1cc(OC)nc(Sc2cccc(Cl)c2C(=O)O/N=C(\C)c2ccccc2[N+](=O)[O-])n1 [G, (E)-1-(2-nitrophenyl)ethan-1-one O-(2-chloro-6-((4,6-dimethoxypyrimidin-2-yl)thio)benzoyl)oxime]
Inhibition rate (%) Portulaca oleracea (Portulaca oleracea): 89.4% | Inhibition rate (%) Echinochloa crusgalli (Echinochloa crusgalli): 90.4% | Inhibition rate (%) Eleusine indica (Eleusine indica): 84.6% | Inhibition rate (%) Amaranthus retroflexus (Amaranthus retroflexus): 100% | Inhibition rate (%) Setaria viridis (Setaria viridis): 60.3% | Inhibition rate (%) Chenopodium album (Chenopodium album): 95.7% | melting point: 130 to 134 °C

Structure (SMILES): COc1cc(OC)nc(Sc2cccc(Cl)c2C(=O)O/N=C(\C)c2cccc([N+](=O)[O-])c2)n1 [H, (E)-1-(3-nitrophenyl)ethan-1-one O-(2-chloro-6-((4,6-dimethoxypyrimidin-2-yl)thio)benzoyl)oxime]
Inhibition rate (%) Portulaca oleracea (Portulaca oleracea): 85.9% | Inhibition rate (%) Echinochloa crusgalli (Echinochloa crusgalli): 87.7% | Inhibition rate (%) Eleusine indica (Eleusine indica): 88.5% | Inhibition rate (%) Amaranthus retroflexus (Amaranthus retroflexus): 100% | Inhibition rate (%) Setaria viridis (Setaria viridis): 64.6% | Inhibition rate (%) Chenopodium album (Chenopodium album): 90.4% | melting point: 155 to 159 °C

Structure (SMILES): COc1cc(OC)nc(Sc2cccc(Cl)c2C(=O)O/N=C(\C)c2ccc([N+](=O)[O-])cc2)n1 [I, (E)-1-(4-nitrophenyl)ethan-1-one O-(2-chloro-6-((4,6-dimethoxypyrimidin-2-yl)thio)benzoyl)oxime]
Inhibition rate (%) Portulaca oleracea (Portulaca oleracea): 94.5% | Inhibition rate (%) Echinochloa crusgalli (Echinochloa crusgalli): 95.7% | Inhibition rate (%) Eleusine indica (Eleusine indica): 89.7% | Inhibition rate (%) Amaranthus retroflexus (Amaranthus retroflexus): 100% | Inhibition rate (%) Setaria viridis (Setaria viridis): 75.1% | Inhibition rate (%) Chenopodium album (Chenopodium album): 96.8% | melting point: 153 to 157 °C

Structure (SMILES): COc1cc(OC)nc(Sc2cccc(Cl)c2C(=O)O/N=C(\C)c2cccc(F)c2)n1 [K, (E)-1-(3-fluorophenyl)ethan-1-one O-(2-chloro-6-((4,6-dimethoxypyrimidin-2-yl)thio)benzoyl) oxime]
Inhibition rate (%) Portulaca oleracea (Portulaca oleracea): 93.3% | Inhibition rate (%) Echinochloa crusgalli (Echinochloa crusgalli): 100% | Inhibition rate (%) Eleusine indica (Eleusine indica): 92.0% | Inhibition rate (%) Amaranthus retroflexus (Amaranthus retroflexus): 100% | Inhibition rate (%) Setaria viridis (Setaria viridis): 72.9% | Inhibition rate (%) Chenopodium album (Chenopodium album): 100% | melting point: 103 to 107 °C

Structure (SMILES): COc1cc(OC)nc(Sc2cccc(Cl)c2C(=O)O/N=C(\C)c2ccc(F)cc2)n1 [L, (E)-1-(4-fluorophenyl)ethan-1-one O-(2-chloro-6((4,6-dimethoxypyrimidin-2-yl)thio)benzoyl) oxime]
Inhibition rate (%) Portulaca oleracea (Portulaca oleracea): 90.5% | Inhibition rate (%) Echinochloa crusgalli (Echinochloa crusgalli): 100% | Inhibition rate (%) Eleusine indica (Eleusine indica): 87.0% | Inhibition rate (%) Amaranthus retroflexus (Amaranthus retroflexus): 100% | Inhibition rate (%) Setaria viridis (Setaria viridis): 75.4% | Inhibition rate (%) Chenopodium album (Chenopodium album): 100% | melting point: 102 to 105 °C

Structure (SMILES): COc1cc(OC)nc(Sc2cccc(Cl)c2C(=O)O)n1 [Pyrithiobac-sodium, reference compound]
Inhibition rate (%) Portulaca oleracea (Portulaca oleracea): 96.8% | Inhibition rate (%) Echinochloa crusgalli (Echinochloa crusgalli): 60.6% | Inhibition rate (%) Eleusine indica (Eleusine indica): 44.7% | Inhibition rate (%) Amaranthus retroflexus (Amaranthus retroflexus): 95.2% | Inhibition rate (%) Setaria viridis (Setaria viridis): 65.4% | Inhibition rate (%) Chenopodium album (Chenopodium album): 93.9%

More lines, main results first:

melting point: 82 to 85 °C
Structure (SMILES): COc1cc(OC)nc(Sc2cccc(Cl)c2C(=O)O/N=C(\C)c2ccccc2C(F)(F)F)n1 [D, (E)-1-(2-(trifluoromethyl)phenyl)ethan-1-one O-(2-chloro-6-((4,6-dimethoxypyrimidin-2-yl)thio)benzoyl)oxime]
Inhibition rate (%) Portulaca oleracea (Portulaca oleracea): 69.2% | Inhibition rate (%) Echinochloa crusgalli (Echinochloa crusgalli): 78.3% | Inhibition rate (%) Eleusine indica (Eleusine indica): 52.4% | Inhibition rate (%) Amaranthus retroflexus (Amaranthus retroflexus): 80.2% | Inhibition rate (%) Setaria viridis (Setaria viridis): 33.7% | Inhibition rate (%) Chenopodium album (Chenopodium album): 89.6%

melting point: 81 to 86 °C
Structure (SMILES): COc1cc(OC)nc(Sc2cccc(Cl)c2C(=O)O/N=C(\C)c2cccc(C(F)(F)F)c2)n1 [E, (E)-1-(3-(trifluoromethyl)phenyl)ethan-1-one O-(2-chloro-6-((4,6-dimethoxypyrimidin-2-yl)thio)benzoyl)oxime]
Inhibition rate (%) Portulaca oleracea (Portulaca oleracea): 64.6% | Inhibition rate (%) Echinochloa crusgalli (Echinochloa crusgalli): 79.5% | Inhibition rate (%) Eleusine indica (Eleusine indica): 37.0% | Inhibition rate (%) Amaranthus retroflexus (Amaranthus retroflexus): 82.4% | Inhibition rate (%) Setaria viridis (Setaria viridis): 27.8% | Inhibition rate (%) Chenopodium album (Chenopodium album): 82.4%

melting point: 87 to 91 °C
Structure (SMILES): COc1cc(OC)nc(Sc2cccc(Cl)c2C(=O)O/N=C(\C)c2ccccc2F)n1 [J, (E)-1-(2-fluorophenyl)ethan-1-one O-(2-chloro-6-((4,6-dimethoxypyrimidin-2-yl)thio)benzoyl) oxime]
Inhibition rate (%) Portulaca oleracea (Portulaca oleracea): 90.2% | Inhibition rate (%) Echinochloa crusgalli (Echinochloa crusgalli): 100% | Inhibition rate (%) Eleusine indica (Eleusine indica): 90.3% | Inhibition rate (%) Amaranthus retroflexus (Amaranthus retroflexus): 100% | Inhibition rate (%) Setaria viridis (Setaria viridis): 77.2% | Inhibition rate (%) Chenopodium album (Chenopodium album): 98.4%

melting point: 125 to 129 °C
Structure (SMILES): COc1ccc(/C(C)=N/OC(=O)c2c(Cl)cccc2Sc2nc(OC)cc(OC)n2)c(OC)c1 [M, (E)-1-(2,4-dimethoxyphenyl)ethan-1-one O-(2-chloro-6-((4,6-dimethoxypyrimidin-2-yl)thio)benzoyl)oxime]
Inhibition rate (%) Portulaca oleracea (Portulaca oleracea): 90.9% | Inhibition rate (%) Echinochloa crusgalli (Echinochloa crusgalli): 100% | Inhibition rate (%) Eleusine indica (Eleusine indica): 85.6% | Inhibition rate (%) Amaranthus retroflexus (Amaranthus retroflexus): 100% | Inhibition rate (%) Setaria viridis (Setaria viridis): 77.2% | Inhibition rate (%) Chenopodium album (Chenopodium album): 100%
